Results published in US4997843A, “2,4-disubstituted derivatives of tetrahydrofuran useful for the treatment of PAF mediated illnesses” (J Uriach & Cia S.A., priority 1987, dated 1991).
Read-outs that look alike come from different tables or passages of the source.

Columns and labels:
[1] = test system: platelet aggregation induced by PAF; test: Test 1: inhibition of platelet aggregation induced by PAF in vitro (rabbit platelet rich plasma, Born nephelometric technique); format: cell-based, male New Zealand albino rabbits; settings: PAF C18 16 nM final, read-out: IC50 (concentration of the drug needed to inhibit the platelet aggregation in a 50%)
Procedure: TEST 1: INHIBITION OF PLATELET AGGREGATION INDUCED BY PAF
The platelet rich plasma (PRP) is prepared by blood centrifugation at 250 xg for 10 min. at 4° C. and it is diluted with platelet poor plasma (PPP) obtained by additional centrifugation at 300 xg for 10 min. The amount of platelets is adjusted to […].

[2] = test system: hypotension induced by PAF; test: Test 2: inhibition of the hypotensive effect induced by PAF in normotense rats; format: in vivo, male Sprague Dawley rats; settings: anesthetized rats, compound via femoral vein 3 min before PAF (0.5 mg/Kg, i.v.); for ED50: Rattus norvegicus, iv, read-out: IC50 (inhibition of the hypotension induced by PAF)
Procedure: TEST 2--INHIBITION OF THE HYPOTENSIVE EFFECT INDUCED BY PAF IN NORMOTENSE RATS
Male Sprague Dawley rats, of 180-220 g of weight, anesthetized with sodium pentobarbital (50 mg/Kg, i.p. 1 mL/100 g) have been used. In order to measure the average arterial pressure a polyethylene catheter was introduced into the carotid artery. The arterial pressure was recorded with the help of a transducer connected with a R611 Beckman polygraph. The tested compounds were administrated through the femoral vein 3 min. before the injection of PAF (0.5 mg/Kg, i.v.).

[3] = Oryctolagus cuniculus, Platelet

`CCCCCCCCCCCCCCCNC(=O)OCC1COC(COC(=O)N(Cc2cccc[n+]2CC)C(C)=O)C1` (racemic) [Compound 49, (±)-cis, trans-N-ethyl-2-[N-acetyl-[[[(4-pentadecylaminocarbonyloxymethyltetrahydrofuran-2-yl)methoxy]-carbonyl]amino]methyl]pyridinium iodide] was tested, and the IC50 [1, 3] was 4.5 nM and the ED50 [2] was 0.033 mg/kg.

Compound `CCCCCCCCCCCCCCCCCNC(=O)OCC1COC(COC(=O)N(Cc2cccc[n+]2CC)C(C)=O)C1` (racemic) [Compound 53, (±)-cis, trans-N-ethyl-2-[N-acetyl-[[[(4-heptadecylaminocarbonyloxymethyltetrahydrofuran-2-yl)methoxy]carbonyl]amino]methyl]pyridinium iodide] has an IC50 [1, 3] of 27 nM and an ED50 [2] of 0.042 mg/kg.

For `CCCCCCCCCCCCCCCCOCC1COC(COC(=O)N(Cc2cccc[n+]2CC)C(C)=O)C1` (racemic) [Compound 58, (±)-cis, trans-N-ethyl-2-[N-acetyl-[[[(4-hexadecyloxymethyltetrahydrofuran-2-yl)methoxy]carbonyl]amino]methyl]pyridinium chloride], the IC50 [1] was 9 nM and the “IC50 (inhibition of the hypotension induced by PAF)” value [2] was 0.044 mg/Kg, i.v.

Work on `CCCCCCCCCCCCCCCCCCOCC1CC(COCCCCCCC[n+]2ccsc2)CO1` (racemic) [Compound 61, (±)-cis, trans-3-[7-[(2-octadecyloxymethyltetrahydrofuran-4-yl)methoxy]heptyl]thiazolium chloride] yielded an IC50 [1, 3] of 2000 nM and an ED50 [2] of 2.1 mg/kg.

With `CCCCCCCCCCCCCCCCCCOCC1CC(COC(=O)CCCCC[n+]2ccsc2)CO1` (racemic) [Compound 64, (±)-cis, trans-3-[6-[(2-octadecyloxymethyltetrahydrofuran-4-yl)methoxy]6-oxohexyl]thiazolium 4-methylbenzenesulfonate] the IC50 [1, 3] was 1500 nM and the ED50 [2] was 1.1 mg/kg.

Compound `CCCCCCCCCCCCCCCCCCOCC1CC(COC(=O)NCc2cccc[n+]2C)CO1` (racemic) [Compound 66, (±)-cis, trans-N-methyl-2-[[[[(2-octadecyloxymethyl-tetrahydrofuran-4-yl)methoxy]carbonyl]amino]methyl]pyridinium iodide] has an IC50 [1, 3] of 1600 nM and an ED50 [2] of 5 mg/kg.

For `CCCCCCCCCCCCCCCCCCOCC1CC(COC(=O)N(Cc2cccc[n+]2C)C(C)=O)CO1` (racemic) [Compound 68, (±)-cis, trans-N-methyl-2-[N-acetyl-[[[(2-octadecyloxymethyltetrahydrofuran-4-yl)methoxy]carbonyl]amino]methyl]pyridinium iodide], the IC50 [1, 3] was 140 nM and the ED50 [2] was 0.11 mg/kg.

`CCCCCCCCCCCCCCC1COC(COCCCCCC[n+]2ccsc2)C1` (racemic) [Compound 70, (±)-cis, trans-3-[6-[(4-tetradecyltetrahydrofuran-2-yl)methoxy]hexyl]thiazolium 4-methylbenzenesulphonate] gave an IC50 [1, 3] of 2200 nM and an ED50 [2] of 2.2 mg/kg.

`CCCCCCCCCCCCCCC1COC(COCCCCCC[n+]2cccc3ccccc32)C1` (racemic) [Compound 72, (±)-cis, trans-1-[6-[(4-tetradecyltetrahydrofuran-2-yl)methoxy]hexyl]quinolinium 4-methylbenzenesulfonate] was tested, and the IC50 [1, 3] was 3400 nM and the ED50 [2] was 3.2 mg/kg.

`CCCCCCCCCCCCCCC1COC(COCCCCCCC[n+]2ccsc2)C1` (racemic) [Compound 82, (±)-cis, trans-3-[7-[(4-tetradecyltetrahydrofuran-2-yl)methoxy]heptyl]thiazolium 4-methylbenzenesulfonate] gave an IC50 [1, 3] of 1800 nM and an ED50 [2] of 1.5 mg/kg.

Work on `CCCCCCCCCCCCCCC1COC(COC(=O)N(Cc2cccc[n+]2C)C(C)=O)C1` (racemic) [Compound 109, (±)-cis,trans-N-methyl-2-[N-acetyl-[[[(4-tetradecyltetrahydrofuran-4-yl]methoxy]carbonyl]amino]methyl]pyridinium iodide] yielded an IC50 [1, 3] of 240 nM and an ED50 [2] of 0.39 mg/kg.

Work on `CCCCCCCCCCCCCCCCCCC1COC(COC(=O)N(Cc2cccc[n+]2CC)C(C)=O)C1` (racemic) [Compound 113] yielded an IC50 [1, 3] of 200 nM and an ED50 [2] of 0.2 mg/kg.
